Source: patent publication US5639734A, “Disaccharide inflammation inhibitors and uses thereof” (priority 1994, dated 1997)
“Also recorded” adds a separate entry of the source. Like-named read-outs stand apart in the source and are kept apart here. Each block holds one compound with its values, some of them ahead of it.

How the values were obtained:
[1] = test system: Chinese hamster ovary cells; assay: Uptake of glycosides by Chinese hamster ovary cells, fluorescence assay; conditions: for Uptake: relative to Xylβ-0-2-naphthol 1.0 unit; for Uptake (in words): CHO cells, 37° C., FIG. 1 and 2 (100 μM in FIG. 2)
Method: Confluent monolayers of Chinese hamster ovary cells were incubated with the indicated concentrations of Xylβ-0-2-naphthol at 37° C. for 30 minutes. The amount of glycoside taken up was determined by fluorescence assay.
The various glycosides were added (100 μM) to confluent Chinese hamster ovary cell monolayers and at the times indicated, the amount of glycoside taken up was quantitated by fluorescence assay. Filled circles: Xylβ-0-2-naphthol; filled square: Galβ-0-2-naphthol; unfilled triangle: Galβ1→4Xylβ-0-2-naphthol; filled triangle: Galβ1 →3Galβ0-2-naphthol.
Compounds were dissolved in DMSO and added to growth medium such that the final concentration of vehicle was 0.5% (v/v). Confluent cells were incubated with supplemented growth medium at 37° C. for various times. The cultures were placed on ice, the medium was aspirated and the cells were washed three times with cold PBS containing 1 mg/ml of bovine serum albumin. Cells were solubilized in a small volume of 0.1M NaOH and the extracts were neutralized with one mole equivalent of acetic acid. After centrifuging the samples, the supernatants were applied to Sep-Pak Plus C18 cartridges (Waters Associates) and washed with water (10 ml) and 20% (v/v) methanol in water (5 ml). Bound material was eluted with 5 ml of 40% (v/v) methanol in water and concentrated to dryness. The residue was dissolved in methanol and its fluoresence was measured (SLM-Aminco Instruments). The excitation and emission wavelengths for 2-naphthol derivatives were 293 nm and 395 nm, respectively. Phenanthrol derivatives were excited at 310 nm and the emission was measured at 365 nm.
Animal cells take up β-D-xylosides and prime glycosaminoglycan chains with great efficiency. For priming to occur, the glycoside must pass though the plasma membrane and enter the Golgi where the glycosyltransferases reside. […] Xylβ-0-2-naphthol has three hydroxyl groups, whereas Gal-0-2-naphtholhas four.

[2] = test system: pgsA-745 cells (xylosyltransferase deficient Chinese hamster ovary cells); assay: Priming of [35S]glycosaminoglycan chains in xylosyltransferase-deficient CHO mutant pgsA-745 cells; format: cell-based; conditions: FIG. 3, 5 hours at 37° C.; for Priming of glycosaminoglycan chains (in words): up to 500 μM; for minimal effective concentration: Cricetulus griseus, read-out: Concentration at which glycosaminoglycan chains are primed
Method: Various compounds at the indicated concentrations were provided to confluent Chinese hamster ovary cells in a 96 well plate. Glycosaminoglycan synthesis was measured by autoradiography of [^35 S]-glycosaminoglycan collected on a postively charged nylon membrane. 1: Xylβ-0-2-naphthol; 2: Xylβ1→6Gal-0-2-naphthol; 3: Xylβ1→6Gal(Me)-0-2-naphthol; 4: Xylβ1→6Gal(Me)2 -0-2-naphthol; 5: Xylβ1→6Gal(Me)3 -0-2-naphthol; 6: Xyl(Ac)3 β-0-2-naphthol; 7:Xyl(Ac)3 β1→6Gal(Ac)3 -0-2-naphthol.
Priming of glycosaminoglycan chains was measured in pgsA-745 cells deficient in xylosyltransfersase. The cells were grown to confluence in 96-well microtiter plates (Falcon). Fresh medium (0.2 ml) containing 50 μCi/ml of H2^35 SO4 (25-40 Ci/mg) and the test compounds were added to the wells. The top row of wells contained […] of glycoside and each subsequent row contained a serial dilution (1:3^n, v/v). Cells were incubated for 5 hours at 37° C. and solubilized by adding 20 μl of 0.5M NaOH. The individual wells were adjusted to 0.2% (w/v) Zwittergent 3-12, 25 μg/ml chondroitin sulfate, 0.2M acetic acid and 10 mM Na2 SO4. The samples were transferred to a GeneScreen Plus membrane (Dupont-NEN) placed on top of a piece of 1Chr paper on a vacuum Minifold (Schleicher & Schuell). A wash solution of 0.2% (w/v) Zwittergent 3-12, 0.2M acetic acid and 10 mM Na2 SO4 (0.5 ml) was passed through each well. The membranes were removed from the Minifold, soaked for 5 minutes in 20 ml of wash solution, air-dried and exposed to RX X-ray film for 10-18 hours.
Therefore, uptake of the disaccharide was measured indirectly by the determining the incorporation of ^35 SO4 into glycosaminoglycan chains. To distinguish glycosaminoglycans produced on the glycoside from those made on endogenous proteoglycans, a Chinese hamster ovary cell mutant deficient in xylosyltransferase was made. […] [^35 S]glycosaminoglycan synthesis was measured by incubating mutant cells in a 96 well plate with glycoside derivatives at different doses. The cells and spent media were then transferred to a positively charged nylon membrane to detect newly made chains by autoradiography.

F9 cells [3] = assay: Uptake of disaccharides by F9 cells, fluorescence assay; format: in vitro ADME, mouse; conditions: for Uptake: Table I, control value without glycoside (1.0) subtracted
F9 cells [4] = assay: Priming of [3H]GlcN-labeled oligosaccharides in F9 cells; format: cell-based, mouse; conditions: for Priming of oligosaccharides (in words) / Priming: F9 cells; for Priming of oligosaccharides (in words): [3H]GlcN; for Priming: Table I, per μg cell protein, control value (30) subtracted; for Fraction of labeled oligosaccharides that were charged (bound to QAE-Sephadex): anion-exchange chromatography
sLe^x on HL-60 cells = assay: FACS of sLe^x expression on HL-60 cells with mAb CSLEX-1; format: cell-based, human; conditions: for Inhibition of sialyl Lewis X formation in HL-60 cells (in words): concentration not given
[5] = test system: HL-60 adhesion to activated human umbilical vein endothelial cells (HUVEC); assay: Adhesion of HL-60 cells to TNF-α-activated HUVEC; format: cell-based; conditions: for Inhibition of HL-60 / leukocyte adhesion (in words): TNF-α-treated HUVEC, concentration not given
[6] = test system: basic fibroblast growth factor; conditions: background; cited from earlier work
[7] = listed as acetylated Galβ1→4GlcNAcβ-0-2-naphthalenemethanol
[8] = listed as peracetylated Galβ1→4GlcNAcβ-0-2-naphthalenemethanol

Compound: OC[C@H]1O[C@@H](Oc2cc3ccccc3c3ccccc23)[C@H](O)[C@@H](O)[C@H]1O [Galβ-0-9-phenanthrol]
Uptake [1]: 4.2 unit of fluorescence

Compound: O[C@H]1[C@@H](O)[C@@H](CO[C@@H]2OC[C@@H](O)[C@H](O)[C@H]2O)O[C@@H](Oc2ccc3ccccc3c2)[C@@H]1O [Xylβ1→6Galβ-0-2-naphthol]
Priming of glycosaminoglycan chains (in words) [2]: did not prime [^35 S]-glycosaminoglycans even at 500 μM

Compound: CC(=O)N[C@H]1[C@H](OCc2ccc3ccccc3c2)O[C@H](CO)[C@@H](O[C@@H]2O[C@H](CO)[C@H](O)[C@H](O)[C@H]2O)[C@@H]1O [Galβ1→4GlcNAcβ-0-naphthalenemethanol, Galβ1→4GlcNAcβ-0-2-naphthalenemethanol]
Uptake (in words) (F9 cells [3]): very limited | Uptake (F9 cells [3]): 0.5 Arbitray units | Priming of oligosaccharides (in words) (F9 cells [4]): increases with time and does not saturate for several hours | Priming (F9 cells [4]): 20 ^3 H-cpm/μg

Compound: CC(=O)O[C@H]1[C@@H](OC(C)=O)[C@@H](CO[C@@H]2OC[C@@H](OC(C)=O)[C@H](OC(C)=O)[C@H]2OC(C)=O)O[C@@H](Oc2ccc3ccccc3c2)[C@@H]1OC(C)=O [peracetylated Xylβ1→6Galβ-0-2-naphthol, Xyl(Ac)3 β1→6Gal(Ac)3-0-2-naphthol]
minimal effective concentration [2]: ~6 µM

Compound: CC(=O)O[C@@H]1[C@@H](OC(C)=O)[C@H](Oc2ccc3ccccc3c2)OC[C@H]1OC(C)=O [Xyl(Ac)3 β-0-2-naphthol]
Priming of glycosaminoglycan chains (in words) [2]: somewhat less effectively than the non-acetylated compound

Uptake [1]: 0.3 unit of fluorescence
Compound: OC[C@H]1O[C@@H](Oc2ccc3ccccc3c2)[C@H](O)[C@@H](O)[C@H]1O [Galβ-0-2-naphthol]
Uptake (in words) [1]: slow and reached a lower steady-state level

Uptake (in words) [1]: not taken up al all
Compound: OC[C@H]1O[C@@H](O[C@@H]2CO[C@@H](Oc3ccc4ccccc4c3)[C@H](O)[C@H]2O)[C@H](O)[C@@H](O)[C@H]1O [Galβ1→4Xylβ-0-2-naphthol]

Compound: Xylβ1→6Gal(Me)2 -0-2-naphthol
Concentration at which glycosaminoglycan chains are primed [2]: 2 to 6 µM

Compound: CC(=O)N[C@H]1[C@H](OCc2ccc3ccccc3c2)O[C@H](COC(C)=O)[C@@H](O[C@@H]2O[C@H](COC(C)=O)[C@H](OC(C)=O)[C@H](OC(C)=O)[C@H]2OC(C)=O)[C@@H]1OC(C)=O [AcLacNAc-NM, acetylated Galβ1→4GlcNAcβ-O-naphthalenemethanol]
sLe^x expression on the cell surface, FACS (in words) (sLe^x on HL-60 cells; 200 μM acetylated sugars, 40 hours / two days, mAb CSLEX-1): the cell population shifted to a lower mean fluorescence | Inhibition of sialyl Lewis X formation in HL-60 cells (in words) (sLe^x on HL-60 cells): inhibit the formation of sialyl Lewis X | Inhibition of sialyl Lewis X formation in HL-60 cells (in words) (sLe^x on HL-60 cells; [7]): inhibition of sLe^x expression on the surface of HL-60 cells | Uptake (in words) (F9 cells [3]): nearly as well as non-acetylated pentosides linked to naphthol | Uptake (F9 cells [3]): 6.4 Arbitray units | Uptake (in words) (F9 cells [3]; [8]): nearly as efficient as Xylβ-0-napthol | Priming of oligosaccharides (in words) (F9 cells [4]): primed oligosaccharides in F9 cells; also recorded: A significant lag phase preceded priming of oligosaccharides | Priming of oligosaccharides (in words) (F9 cells [4]; listed as acetylated Galβ1→4GlcNAcβ-O-naphthalenemethanol): prime oligosaccharides in cultured cells | Priming of oligosaccharides (in words) (F9 cells [4]; [8]): A large amount of labeled material was generated | Priming (F9 cells [4]): 250 ^3 H-cpm/μg | Fraction of labeled oligosaccharides that were charged (bound to QAE-Sephadex) (F9 cells [4]): About 25% | Fraction of labeled oligosaccharides that were charged (bound to QAE-Sephadex) (F9 cells [4]; [8]): approximately 25% | Fold reduction in attached HL-60 cells ([5]; 100 μM AcLacNAc-NM, TNF-α HUVEC, static): 8 -fold | Inhibition of HL-60 / leukocyte adhesion (in words) [5]: reduced adhesion | Inhibition of HL-60 / leukocyte adhesion (in words) [5, 7]: The decrease in sLe^x expression had a corresponding effect on cell adhesion

Compound: O[C@@H]1[C@@H](O)[C@H](Oc2ccc3ccccc3c2)OC[C@H]1O [Xylβ-0-2-naphthol]
Uptake (F9 cells [3]): 9.0 Arbitray units | Priming of glycosaminoglycan chains (in words) [2]: primed chains efficiently | Binding of primed heparan sulfate chains to basic fibroblast growth factor (in words) [6]: will bind to basic fibroblast growth factor | Uptake (in words) [1]: diffuse more readily than hexosides; also recorded: occurs by diffusion; also recorded: depended on concentration and did not saturate | Time for uptake to reach a plateau ([1]; FIG. 2, 100 μM): less than one minute | Uptake [1]: 1.0 unit of fluorescence

Compound: Xylβ1→6Gal(Me)-0-2-naphthol
Concentration of maximum effect on 35S-glycosaminoglycan synthesis [2]: approximately 60 μM | Priming of glycosaminoglycan chains (in words) [2]: Higher concentrations were less effective

Compound: CO[C@H]1[C@@H](OC)[C@@H](CO[C@@H]2OC[C@@H](O)[C@H](O)[C@H]2O)O[C@@H](Oc2ccc3ccccc3c2)[C@@H]1OC [Xylβ1→6Gal(Me)3-0-2-naphthol]
minimal effective concentration [2]: < 1 µM | Priming of glycosaminoglycan chains (in words) [2]: nearly as well as Xylβ-0-2-napthol

Compound: CC(=O)N[C@H]1[C@H](O[C@H]2[C@@H](OC(C)=O)[C@@H](COC(C)=O)O[C@@H](OCc3ccc4ccccc4c3)[C@@H]2OC(C)=O)O[C@H](COC(C)=O)[C@@H](OC(C)=O)[C@@H]1OC(C)=O [AcGlcNAcGal-NM, Peracetylated GlcNAcβ1-3Galβ-0-naphthalenemethanol]
Inhibition of sialyl Lewis X formation in HL-60 cells (in words) (sLe^x on HL-60 cells): inhibit the formation of sialyl Lewis X | Fold [3H]GlcN-labeled oligosaccharides primed compared with AcLacNAc-NM (F9 cells [4]; >25 μM): ~10 -fold | Priming of oligosaccharides (in words) (F9 cells [4]): much more active than AcLacNAc-NM at low dose | Priming of oligosaccharides (in words) (F9 cells [4]; listed as Acetylated GlcNAcβ1→3Galβ-O-naphthalenemethanol): primes oligosaccharides and inhibits cell adhesion more efficiently than acetylated Galβ1→4GlcNAcβ-X-naphthalenemethanol | Priming of oligosaccharides (in words) (F9 cells [4]; listed as acetylated GlcNAcβ1→3Galβ-O-naphthalenemethanol): prime oligosaccharides in cultured cells | Inhibition of HL-60 / leukocyte adhesion (in words) [5]: inhibits cell adhesion more efficiently than acetylated Galβ1→4GlcNAcβ-X-naphthalenemethanol

Compound: OC[C@H]1O[C@@H](O[C@H]2[C@@H](O)[C@@H](CO)O[C@@H](Oc3cc4ccccc4c4ccccc34)[C@@H]2O)[C@H](O)[C@@H](O)[C@H]1O [Galβ1→3Galβ-0-9-phenanthrol]
Uptake [1]: less than 0.1 unit of fluorescence

Uptake (in words) [1]: not taken up al all
Compound: OC[C@H]1O[C@@H](O[C@H]2[C@@H](O)[C@@H](CO)O[C@@H](Oc3ccc4ccccc4c3)[C@@H]2O)[C@H](O)[C@@H](O)[C@H]1O [Galβ1→3Galβ-0-2-naphthol]

Compound: O[C@@H]1[C@@H](O)[C@@H](Oc2ccc3ccccc3c2)OC[C@@H]1O [L-Araβ-0-2-naphthol, L-Araα-0-2-naphthol]
Uptake (in words) [1]: diffuse more readily than hexosides | Uptake [1]: 0.8 unit of fluorescence
